Values quoted from earlier work, collected in patent US20240238439A1, “HER3-BINDING ANTIBODY-DRUG CONJUGATE” (Hummingbird Bioscience Pte. Ltd., priority 2023, published 2024).

Details: subset of EGFR-mutant and TKI-resistant lung cancers, and metastatic breast cancers; cited from earlier work

Question: Which clinical responses does the source give for Patritumab-DXd here?
Answer: clinical responses have been observed
